Measurements taken from patent US20240025919A1, “AZA-TETRACYCLIC OXAZEPINE COMPOUNDS AND USES THEREOF” (Genentech, Inc., priority 2022, published 2024).
Read-outs that look alike come from different tables or passages of the source.

Experiments:
[1] = target: T1, KRAS WT (Homo sapiens (Human), UniProt P01116); experiment: KRAS WT Biochemical Assay, BODIPY-GDP Exchange TR-FRET (Example 502; 0.06 nM KRAS WT, 15 nM GDP, 300 nM SOS1, 120-minute incubation); settings: read-out: KRas HTRF IC50
Outline: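 Biotin-tagged recombinant KRAS WT (0.06 nM) preloaded with 15 nM GDP and Tb-streptavidin, 10 min RT, then exchange started with 300 nM SOS1 plus 300 nM BODIPY-GDP in HEPES pH 7.5 buffer with MgCl2. TR-FRET 520/490 ratio read after 120 min; normalized to DMSO and full-inhibition control; IC50 from 4-parameter fit.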

[2] = tested on: HPAC (homozygous mutant KRAS G12D human pancreatic cell line); experiment: KRAS 3D-Cell Proliferation Assay, HPAC (CellTiter-Glo 3D, 7 days); assay type: cell-based; settings: HPAC 3D culture, read-out: Prolif HPAC 3D ATP IC50
Protocol: (§1) Example 503: KRAS 3D-Cell Proliferation Assays. Cellular potencies of compounds are assessed by evaluating inhibition of proliferation in 3D cultures of homozygous mutant KRAS G12D human pancreatic cell lines (AsPC-1 and HPAC) as compared to a KRAS wild type human lung adenocarcinoma cell line (PC-9 and/or H1975). Cells are seeded into 384-well black round-bottom, ultra-low attachment assay plates in 50 uL cell growth medium (RPMI-1640 with 10% fetal bovine serum and 2 mM L-glutamine). After overnight incubation at 37° C. and 5% CO2, compounds solubilized in DMSO are added as dilution series to the wells in a total volume of 150 nL (0.3% DMSO final). The cells are incubated for 7 days at 37° C. and 5% CO2. Cell proliferation is quantitated by addition of 40 uL/well of CellTiter-GloO 3D (Promega), and the well contents are mixed 20× at high speed using liquid handling automation workstation (Bravo with 384-well head) and centrifuged at 1500 rpm for 2 minutes to eliminate bubbles. This reagent in combination with mechanical disruption releases the cellular ATP to promote activity in a luciferase-based enzyme/substrate chemiluminescent detection system. After a 30-minute incubation under ambient conditions with shaking and an additional 10 minutes without shaking, the luminescence is read on a plate reader (e.g. EnVision [PerkinElmer]). The results are normalized to percent inhibition based on the following control samples: DMSO (0% inhibition) and 1 uM staurosporine (100% inhibition). The normalized luminescence results are plotted against compound concentration, and the data are fit to a 4-parameter Hill equation to determine the IC50 values.

[3] = tested on: H1975 (KRAS wild type human lung adenocarcinoma cell line); experiment: KRAS 3D-Cell Proliferation Assay, H1975 (CellTiter-Glo 3D, 7 days); assay type: cell-based; settings: H1975 3D culture, read-out: Prolif H1975 3D ATP IC50
Protocol: as §1

[4] = target: KRAS G12D (Homo sapiens (Human), UniProt P01116, G12D); experiment: KRAS G12D LoEnz Biochemical Assay, BODIPY-GDP Exchange TR-FRET (SOS1-mediated nucleotide exchange); settings: read-out: KRas (G12D) GDP HTRF IC50
[5] = target: T1, KRAS WT; experiment: KRAS WT Biochemical Assay, BODIPY-GDP Exchange TR-FRET (Example 501; 3 nM KRAS WT, 3 nM SOS1, 60-minute incubation); settings: read-out: KRas HTRF IC50
Outline: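 SOS1-mediated exchange assay: 3 nM biotin-KRAS WT with terbium-streptavidin, started with 3 nM SOS1 and 300 nM BODIPY-GDP, HEPES pH 7.5 with MgCl2. TR-FRET (520/490 nm) read after 60 min; normalized to DMSO and full-inhibition control, IC50 from 4-parameter Hill fit.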

T1 sequence (P01116-2 other isoform, or with tags, fused parts or gaps): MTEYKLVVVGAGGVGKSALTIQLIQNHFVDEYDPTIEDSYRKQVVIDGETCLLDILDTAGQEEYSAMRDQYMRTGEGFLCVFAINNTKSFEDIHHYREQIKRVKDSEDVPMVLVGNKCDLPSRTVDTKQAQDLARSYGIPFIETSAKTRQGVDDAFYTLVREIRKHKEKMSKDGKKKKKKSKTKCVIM
KRAS G12D, sequence (P01116-2 other isoform, or with tags, fused parts or gaps G12D): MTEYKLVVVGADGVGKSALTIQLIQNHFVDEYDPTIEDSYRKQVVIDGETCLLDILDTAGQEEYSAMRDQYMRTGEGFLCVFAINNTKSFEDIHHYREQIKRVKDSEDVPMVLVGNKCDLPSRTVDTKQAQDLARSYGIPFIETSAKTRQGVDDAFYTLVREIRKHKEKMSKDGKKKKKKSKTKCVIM

Cc1c(F)c(N)cc(-c2nc3c4c(nc(OC[C@@H]5COC[C@H]6CCCN65)nc4c2F)N2C[C@H]4CC[C@H](N4)[C@H]2[C@H](C)O3)c1C(F)(F)F (single isomer, unassigned) [121 (isomer 2)]
IC50 [1]: 49.3 nM
IC50 ([2]; Homo sapiens, HPAC, 168 h): 17.5 nM
IC50 ([3]; Homo sapiens, NCI-H1975, 168 h): 533 nM
IC50 [4]: 0.27 nM

Cc1c(F)c(N)cc(-c2nc3c4c(nc(OC[C@@]56CCC[C@@H]5N(C)CCC6)nc4c2F)N2C[C@H]4CC[C@H](N4)[C@H]2[C@H](C)O3)c1C(F)(F)F (single isomer, unassigned) [126 (isomer 2)]
IC50 [1]: 8.08 nM
IC50 ([2]; Homo sapiens, HPAC, 168 h): 5.15 nM
IC50 ([3]; Homo sapiens, NCI-H1975, 168 h): 1770 nM
IC50 [4]: 0.09 nM

Cc1c(F)c(N)cc(-c2nc3c4c(nc(OC[C@@]56CCC[C@H]5N(C)CCC6)nc4c2F)N2C[C@H]4CC[C@H](N4)[C@H]2[C@H](C)O3)c1C(F)(F)F (single isomer, unassigned) [126 (isomer 3)]
IC50 [1]: 6.31 nM
IC50 ([2]; Homo sapiens, HPAC, 168 h): 3.28 nM
IC50 ([3]; Homo sapiens, NCI-H1975, 168 h): 1430 nM
IC50 [4]: 0.09 nM

Cc1c(F)c(N)cc(-c2nc3c4c(nc(OC[C@]56CCC[C@H]5N(C)CCC6)nc4c2F)N2C[C@H]4CC[C@H](N4)[C@H]2[C@H](C)O3)c1C(F)(F)F (single isomer, unassigned) [126 (isomer 4)]
IC50 [1]: 90.3 nM
IC50 ([2]; Homo sapiens, HPAC, 168 h): 24.9 nM
IC50 ([3]; Homo sapiens, NCI-H1975, 168 h): 2250 nM
IC50 [4]: 0.37 nM

Cc1c(F)c(N)cc(-c2nc3c4c(nc(OC[C@@]56CCCN5[C@@H](C(F)F)CC6)nc4c2F)N2C[C@H]4CC[C@H](N4)[C@H]2[C@H](C)O3)c1C(F)(F)F (single isomer, unassigned) [130 (isomer 1)]
IC50 [1]: 460 nM
IC50 [2]: 44.7 nM
IC50 ([3]; Homo sapiens, NCI-H1975, 168 h): 2830 nM
IC50 [4]: 2.26 nM

Cc1c(F)c(N)cc(-c2nc3c4c(nc(OC[C@H]5CC[C@@H]6CN(C)C(=O)CN56)nc4c2F)N2C[C@H]4CC[C@H](N4)[C@H]2[C@H](C)O3)c1C(F)(F)F (single isomer, unassigned) [131 (isomer 4)]
IC50 [1]: 195 nM
IC50 [2]: 90 nM
IC50 [4]: 1.14 nM

C[C@@H]1Oc2nc(-c3cc(N)c(F)cc3[C@H](C)C(F)F)c(F)c3nc(OC[C@@]45CCCN4C[C@H](F)C5)nc(c23)N2C[C@H]3CC[C@H](N3)[C@@H]12 (single isomer, unassigned) [181 (isomer 1)]
IC50 [1]: 10900 nM
IC50 ([2]; Homo sapiens, HPAC, 168 h): 2000 nM
IC50 [4]: 159 nM

CC(c1cc(F)c(N)cc1-c1nc2c3c(nc(OC[C@@]45CCCN4C[C@H](F)C5)nc3c1F)N1C[C@H]3CC[C@H](N3)[C@H]1[C@H](C)O2)C(F)F (single isomer, unassigned) [181 (isomer 2)]
IC50 ([2]; Homo sapiens, HPAC, 168 h): 903 nM
IC50 ([3]; Homo sapiens, NCI-H1975, 168 h): 7260 nM
IC50 [5]: 3030 nM
IC50 [4]: 50.4 nM

Cc1c(F)c(N)cc(-c2nc3c4c(nc(OC[C@@]56CCCN5C[C@H](F)C6)nc4c2F)N2CCN[C@@H](C)[C@H]2[C@H](C)O3)c1C(F)(F)F (single isomer, unassigned) [234 (isomer 1)]
IC50 ([2]; Homo sapiens, HPAC, 168 h): 2000 nM
IC50 ([3]; Homo sapiens, NCI-H1975, 168 h): 8570 nM
IC50 [5]: 23300 nM
IC50 [4]: 1330 nM

Cc1c(F)c(N)cc(-c2nc3c4c(nc(OC[C@@]56CCCN5C[C@H](F)C6)nc4c2F)N2CCN[C@@H](C)[C@H]2[C@@H](C)O3)c1C(F)(F)F (single isomer, unassigned) [234 (isomer 2)]
IC50 ([2]; Homo sapiens, HPAC, 168 h): 2000 nM
IC50 ([3]; Homo sapiens, NCI-H1975, 168 h): 9750 nM
IC50 [5]: 513 nM
IC50 [4]: 209 nM

Cc1c(F)c(N)cc(-c2nc3c4c(nc(OC[C@@]56CCCN5C[C@H](F)C6)nc4c2F)N2CCN[C@H](C)[C@@H]2[C@H](C)O3)c1C(F)(F)F (single isomer, unassigned) [234 (isomer 3)]
IC50 ([2]; Homo sapiens, HPAC, 168 h): 2000 nM
IC50 ([3]; Homo sapiens, NCI-H1975, 168 h): 16600 nM
IC50 [5]: 4570 nM
IC50 [4]: 4810 nM

Cc1c(F)c(N)cc(-c2nc3c4c(nc(OC[C@@]56CCCN5C[C@H](F)C6)nc4c2F)N2CCN[C@H](C)[C@@H]2[C@@H](C)O3)c1C(F)(F)F (single isomer, unassigned) [234 (isomer 4)]
IC50 ([2]; Homo sapiens, HPAC, 168 h): 2000 nM
IC50 ([3]; Homo sapiens, NCI-H1975, 168 h): 8500 nM
IC50 [5]: 510 nM
IC50 [4]: 589 nM

Cc1c(F)c(N)cc(-c2nc3c4c(nc(OC[C@@]56CCCN5C[C@H](F)C6)nc4c2F)N2C[C@H]4CC[C@H](N4)[C@H]2[C@@H](C(F)F)O3)c1C(F)(F)F (single isomer, unassigned) [238 (isomer 2)]
IC50 ([2]; Homo sapiens, HPAC, 168 h): 2000 nM
IC50 ([3]; Homo sapiens, NCI-H1975, 168 h): 20000 nM
IC50 [5]: 4800 nM
IC50 [4]: 13000 nM

Cc1nc(N)cc(-c2nc3c4c(nc(OC[C@H]5N(C)C[C@]56CC6(F)F)nc4c2F)N2C[C@H]4CC[C@H](N4)[C@H]2[C@H](C(F)(F)F)O3)c1C(F)(F)F (single isomer, unassigned) [262 (isomer 1)]
IC50 ([2]; Homo sapiens, HPAC, 168 h): 475 nM
IC50 ([3]; Homo sapiens, NCI-H1975, 168 h): 20000 nM
IC50 [5]: 668 nM
IC50 [4]: 31.9 nM

Cc1nc(N)cc(-c2nc3c4c(nc(OCC5N(C)C[C@]56CC6(F)F)nc4c2F)N2C[C@H]4CC[C@H](N4)[C@H]2[C@H](C(F)(F)F)O3)c1C(F)(F)F (single isomer, unassigned) [262 (isomer 3)]
IC50 ([2]; Homo sapiens, HPAC, 168 h): 971 nM
IC50 ([3]; Homo sapiens, NCI-H1975, 168 h): 20000 nM
IC50 [5]: 1080 nM
IC50 [4]: 41.1 nM

Cc1nc(N)cc(-c2nc3c4c(nc(OCC5N(C)CC56CC6(F)F)nc4c2F)N2C[C@H]4CC[C@H](N4)[C@H]2[C@H](C(F)(F)F)O3)c1C(F)(F)F (single isomer, unassigned) [262 (isomer 4)]
IC50 ([2]; Homo sapiens, HPAC, 168 h): 43.4 nM
IC50 ([3]; Homo sapiens, NCI-H1975, 168 h): 4380 nM
IC50 [5]: 35.1 nM
IC50 [4]: 1.14 nM

Cc1c(F)c(N)cc(-c2nc3c4c(nc(OC[C@@]56CCN5CC(F)(F)C6)nc4c2F)N2C[C@H]4CC[C@H](N4)[C@H]2[C@H](C(F)(F)F)O3)c1C(F)(F)F (single isomer, unassigned) [263 (diast. 1)]
IC50 ([2]; Homo sapiens, HPAC, 168 h): 6.14 nM
IC50 ([3]; Homo sapiens, NCI-H1975, 168 h): 789 nM
IC50 [5]: 5.49 nM
IC50 [4]: 0.26 nM

Cc1c(F)c(N)cc(-c2nc3c4c(nc(OCC56CCN5CC(F)(F)C6)nc4c2F)N2C[C@H]4CC[C@H](N4)[C@H]2[C@H](C(F)(F)F)O3)c1C(F)(F)F (single isomer, unassigned) [263 (diast. 2)]
IC50 ([2]; Homo sapiens, HPAC, 168 h): 15.4 nM
IC50 ([3]; Homo sapiens, NCI-H1975, 168 h): 336 nM
IC50 [5]: 15.4 nM
IC50 [4]: 0.53 nM

Cc1cc(N)c(F)c(-c2nc3c4c(ncnc4c2Cl)N2C[C@H]4CC[C@H](N4)[C@H]2[C@H](C)O3)c1C(F)(F)F (single isomer, unassigned) [Compound 95]
IC50 [1]: 3570 nM
IC50 [2]: 247 nM
IC50 [3]: 6700 nM

Cc1cc(N)c(Cl)c(-c2nc3c4c(nc(OC[C@@]56CCCN5C[C@H](F)C6)nc4c2Cl)N2C[C@H]4CC[C@H](N4)[C@H]2[C@H](C)O3)c1C(F)(F)F (single isomer, unassigned) [Compound 240 (atrop. 1)]
IC50 [2]: 594 nM
IC50 [3]: 6480 nM
IC50 [5]: 1080 nM
IC50 [4]: 44.9 nM

Cc1cc(N)c(Cl)c(-c2nc3c4c(nc(OC[C@@]56CCCN5C[C@H](F)C6)nc4c2Cl)N2C[C@H]4CC[C@H](N4)[C@H]2[C@H](C)O3)c1C(F)(F)F (single isomer, unassigned) [Compound 240 (atrop. 2)]
IC50 [2]: 1.88 nM
IC50 [3]: 1060 nM
IC50 [5]: 15.1 nM
IC50 [4]: 0.14 nM
